# Legend:
# Assay in all cases: KINOMEscan
# Type in all cases: binding
# Conditions in all cases: 1.0 µM
# PIKFYVE = biological target: T1, PIKFYVE (Homo sapiens, UniProt Q9Y2I7)
# T1 construct: purchased Eurofins/DiscoverX KINOMEscan scanMAX
# Method: (§1) Kinase retention to the immobilized ligand is then measured using quantitative real-time PCR for each kinase-specific DNA barcode.
# CLK2 = biological target: T2, CLK2 (Homo sapiens, UniProt P49760)
# T2 construct: purchased Eurofins/DiscoverX KINOMEscan scanMAX
# Method: as §1
# [1] = biological target: T3, RPS6KA4(Kin.Dom.2-C-terminal) (Homo sapiens, UniProt O75676)
# T3 construct: RPS6KA4(Kin.Dom.2-C-terminal); purchased Eurofins/DiscoverX KINOMEscan scanMAX
# Method: as §1
# PRKCI = biological target: T4, PRKCI (Homo sapiens, UniProt P41743)
# T4 construct: purchased Eurofins/DiscoverX KINOMEscan scanMAX
# Method: as §1
# PIK3CA = biological target: T5, PIK3CA (Homo sapiens, UniProt P42336)
# T5 construct: purchased Eurofins/DiscoverX KINOMEscan scanMAX
# Method: as §1
# MARK4 = biological target: T6, MARK4 (Homo sapiens, UniProt Q96L34)
# T6 construct: purchased Eurofins/DiscoverX KINOMEscan scanMAX
# Method: as §1
# MYO3A = biological target: T7, MYO3A (Homo sapiens, UniProt Q8NEV4)
# T7 construct: purchased Eurofins/DiscoverX KINOMEscan scanMAX
# Method: as §1
# EPHB6 = biological target: T8, EPHB6 (Homo sapiens, UniProt O15197)
# T8 construct: purchased Eurofins/DiscoverX KINOMEscan scanMAX
# Method: as §1
# MET(M1250T) = biological target: T9, MET(M1250T) (Homo sapiens, UniProt P08581, M1250T)
# T9 construct: purchased Eurofins/DiscoverX KINOMEscan scanMAX
# Method: as §1
# CAMK4 = biological target: T10, CAMK4 (Homo sapiens, UniProt Q16566)
# T10 construct: purchased Eurofins/DiscoverX KINOMEscan scanMAX
# Method: as §1
# PLK2 = biological target: T11, PLK2 (Homo sapiens, UniProt Q9NYY3)
# T11 construct: purchased Eurofins/DiscoverX KINOMEscan scanMAX
# Method: as §1
# TLK2 = biological target: T12, TLK2 (Homo sapiens, UniProt Q86UE8)
# T12 construct: purchased Eurofins/DiscoverX KINOMEscan scanMAX
# T12 sequence (Q86UE8 whole entry): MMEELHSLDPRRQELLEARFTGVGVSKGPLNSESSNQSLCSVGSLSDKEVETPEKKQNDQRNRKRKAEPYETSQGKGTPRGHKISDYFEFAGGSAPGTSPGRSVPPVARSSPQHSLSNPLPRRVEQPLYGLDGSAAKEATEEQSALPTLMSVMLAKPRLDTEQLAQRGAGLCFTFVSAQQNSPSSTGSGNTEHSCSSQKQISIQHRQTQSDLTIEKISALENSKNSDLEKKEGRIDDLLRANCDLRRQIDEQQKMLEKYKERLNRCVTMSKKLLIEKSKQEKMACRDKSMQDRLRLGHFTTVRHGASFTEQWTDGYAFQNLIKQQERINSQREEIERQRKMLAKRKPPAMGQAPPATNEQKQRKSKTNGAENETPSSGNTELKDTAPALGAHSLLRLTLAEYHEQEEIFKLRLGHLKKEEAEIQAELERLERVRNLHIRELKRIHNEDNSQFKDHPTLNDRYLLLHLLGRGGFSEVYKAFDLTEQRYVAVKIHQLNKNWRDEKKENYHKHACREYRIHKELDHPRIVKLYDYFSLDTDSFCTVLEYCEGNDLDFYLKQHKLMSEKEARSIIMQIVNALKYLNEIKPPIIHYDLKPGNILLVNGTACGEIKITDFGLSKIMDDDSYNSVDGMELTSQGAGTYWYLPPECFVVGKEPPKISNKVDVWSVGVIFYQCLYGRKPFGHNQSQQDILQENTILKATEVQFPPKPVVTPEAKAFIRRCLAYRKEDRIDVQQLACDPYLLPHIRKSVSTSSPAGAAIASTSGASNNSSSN
# Method: as §1
# DLK = biological target: T13, DLK (Homo sapiens, UniProt Q12852)
# T13 construct: purchased Eurofins/DiscoverX KINOMEscan scanMAX
# Method: as §1
# KIT(A829P) = biological target: T14, KIT(A829P) (Homo sapiens, UniProt P10721, A829P)
# T14 construct: purchased Eurofins/DiscoverX KINOMEscan scanMAX
# Method: as §1
# GAK = biological target: T15, GAK (Homo sapiens, UniProt O14976)
# T15 construct: purchased Eurofins/DiscoverX KINOMEscan scanMAX
# T15 sequence (O14976 whole entry): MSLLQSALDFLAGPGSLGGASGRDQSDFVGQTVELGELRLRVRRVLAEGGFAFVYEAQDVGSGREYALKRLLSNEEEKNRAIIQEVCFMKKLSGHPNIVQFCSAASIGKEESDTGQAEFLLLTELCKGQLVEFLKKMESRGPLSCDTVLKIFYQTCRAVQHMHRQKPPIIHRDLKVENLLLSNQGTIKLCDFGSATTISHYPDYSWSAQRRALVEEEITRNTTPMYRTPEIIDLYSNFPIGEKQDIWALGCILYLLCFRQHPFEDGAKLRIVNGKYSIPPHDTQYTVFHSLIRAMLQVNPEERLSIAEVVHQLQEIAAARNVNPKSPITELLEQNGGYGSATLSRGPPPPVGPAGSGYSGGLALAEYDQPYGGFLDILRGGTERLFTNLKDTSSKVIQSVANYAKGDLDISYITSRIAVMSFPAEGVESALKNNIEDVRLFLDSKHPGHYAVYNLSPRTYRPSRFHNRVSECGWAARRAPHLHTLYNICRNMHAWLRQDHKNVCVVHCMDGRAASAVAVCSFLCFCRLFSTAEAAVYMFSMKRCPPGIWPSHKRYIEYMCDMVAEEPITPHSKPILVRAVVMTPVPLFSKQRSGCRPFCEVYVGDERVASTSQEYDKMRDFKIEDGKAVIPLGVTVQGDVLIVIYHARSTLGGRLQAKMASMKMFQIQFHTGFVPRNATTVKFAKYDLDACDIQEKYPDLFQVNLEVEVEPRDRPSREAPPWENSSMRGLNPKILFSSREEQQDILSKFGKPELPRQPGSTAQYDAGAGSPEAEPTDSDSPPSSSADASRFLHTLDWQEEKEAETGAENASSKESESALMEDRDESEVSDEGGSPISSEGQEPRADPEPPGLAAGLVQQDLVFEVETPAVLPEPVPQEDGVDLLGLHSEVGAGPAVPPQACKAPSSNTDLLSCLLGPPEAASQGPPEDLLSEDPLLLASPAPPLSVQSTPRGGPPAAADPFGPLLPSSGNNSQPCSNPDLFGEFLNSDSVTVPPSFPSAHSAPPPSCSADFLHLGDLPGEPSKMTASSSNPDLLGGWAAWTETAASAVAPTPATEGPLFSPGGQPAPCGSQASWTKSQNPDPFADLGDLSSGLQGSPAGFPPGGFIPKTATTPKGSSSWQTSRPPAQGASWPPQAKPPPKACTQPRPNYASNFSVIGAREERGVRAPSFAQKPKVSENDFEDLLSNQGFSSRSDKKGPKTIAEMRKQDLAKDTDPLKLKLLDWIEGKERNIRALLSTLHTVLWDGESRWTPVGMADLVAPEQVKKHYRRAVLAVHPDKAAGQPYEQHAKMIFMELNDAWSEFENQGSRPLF
# Method: as §1
# MET(Y1235D) = biological target: T16, MET(Y1235D) (Homo sapiens, UniProt P08581, Y1235D)
# T16 construct: purchased Eurofins/DiscoverX KINOMEscan scanMAX
# Method: as §1
# PAK3 = biological target: T17, PAK3 (Homo sapiens, UniProt O75914)
# T17 construct: purchased Eurofins/DiscoverX KINOMEscan scanMAX
# Method: as §1
# [2] = biological target: T18, ABL1(Q252H)-nonphosphorylated (Homo sapiens, UniProt P00519, Q252H)
# T18 construct: purchased Eurofins/DiscoverX KINOMEscan scanMAX
# Method: as §1
# KIT(V559D,V654A) = biological target: T19, KIT(V559D,V654A) (Homo sapiens, UniProt P10721, V559D/V654A)
# T19 construct: purchased Eurofins/DiscoverX KINOMEscan scanMAX
# Method: as §1
# IRAK4 = biological target: T20, IRAK4 (Homo sapiens, UniProt Q9NWZ3)
# T20 construct: purchased Eurofins/DiscoverX KINOMEscan scanMAX
# Method: as §1
# PKN1 = biological target: T21, PKN1 (Homo sapiens, UniProt Q16512)
# T21 construct: purchased Eurofins/DiscoverX KINOMEscan scanMAX
# Method: as §1
# YES = biological target: T22, YES (Homo sapiens, UniProt P07947)
# T22 construct: purchased Eurofins/DiscoverX (KINOMEscan scanMAX service)
# T22 sequence (P07947 whole entry): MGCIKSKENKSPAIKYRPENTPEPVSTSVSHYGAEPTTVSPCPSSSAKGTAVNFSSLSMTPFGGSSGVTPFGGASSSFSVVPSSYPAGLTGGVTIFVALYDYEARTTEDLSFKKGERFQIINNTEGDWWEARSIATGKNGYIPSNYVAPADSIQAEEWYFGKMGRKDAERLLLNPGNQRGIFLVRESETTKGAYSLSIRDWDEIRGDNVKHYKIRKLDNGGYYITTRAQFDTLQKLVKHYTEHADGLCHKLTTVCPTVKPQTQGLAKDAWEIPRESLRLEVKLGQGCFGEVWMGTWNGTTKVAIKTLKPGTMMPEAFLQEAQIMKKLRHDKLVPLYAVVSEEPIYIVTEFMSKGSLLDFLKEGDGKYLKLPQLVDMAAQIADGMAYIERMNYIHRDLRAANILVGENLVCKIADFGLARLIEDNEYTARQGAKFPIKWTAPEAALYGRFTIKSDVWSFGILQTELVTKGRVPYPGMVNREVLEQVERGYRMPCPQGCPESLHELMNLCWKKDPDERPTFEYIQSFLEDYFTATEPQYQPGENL
# Method: as §1
# FGR = biological target: T23, FGR (Homo sapiens, UniProt P09769)
# T23 construct: purchased Eurofins/DiscoverX KINOMEscan scanMAX
# T23 sequence (P09769 whole entry): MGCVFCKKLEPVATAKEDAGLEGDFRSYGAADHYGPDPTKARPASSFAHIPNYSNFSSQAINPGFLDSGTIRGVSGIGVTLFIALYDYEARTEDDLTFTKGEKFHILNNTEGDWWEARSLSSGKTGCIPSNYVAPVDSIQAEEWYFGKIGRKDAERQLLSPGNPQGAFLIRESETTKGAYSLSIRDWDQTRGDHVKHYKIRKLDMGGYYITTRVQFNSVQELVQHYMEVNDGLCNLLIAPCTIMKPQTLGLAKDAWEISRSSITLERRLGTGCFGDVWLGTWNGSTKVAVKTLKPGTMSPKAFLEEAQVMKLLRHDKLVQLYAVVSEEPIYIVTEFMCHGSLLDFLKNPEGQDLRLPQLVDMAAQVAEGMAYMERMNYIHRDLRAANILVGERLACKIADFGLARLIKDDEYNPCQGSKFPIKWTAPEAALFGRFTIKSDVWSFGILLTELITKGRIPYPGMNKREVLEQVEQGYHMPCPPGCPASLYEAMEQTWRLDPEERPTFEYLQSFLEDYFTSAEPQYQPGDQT
# Method: as §1
# TGFBR2 = biological target: T24, TGFBR2 (Homo sapiens, UniProt P37173)
# T24 construct: purchased Eurofins/DiscoverX KINOMEscan scanMAX
# Method: as §1
# MERTK = biological target: T25, MERTK (Homo sapiens, UniProt Q12866)
# T25 construct: purchased Eurofins/DiscoverX KINOMEscan scanMAX
# T25 sequence (Q12866 21-999): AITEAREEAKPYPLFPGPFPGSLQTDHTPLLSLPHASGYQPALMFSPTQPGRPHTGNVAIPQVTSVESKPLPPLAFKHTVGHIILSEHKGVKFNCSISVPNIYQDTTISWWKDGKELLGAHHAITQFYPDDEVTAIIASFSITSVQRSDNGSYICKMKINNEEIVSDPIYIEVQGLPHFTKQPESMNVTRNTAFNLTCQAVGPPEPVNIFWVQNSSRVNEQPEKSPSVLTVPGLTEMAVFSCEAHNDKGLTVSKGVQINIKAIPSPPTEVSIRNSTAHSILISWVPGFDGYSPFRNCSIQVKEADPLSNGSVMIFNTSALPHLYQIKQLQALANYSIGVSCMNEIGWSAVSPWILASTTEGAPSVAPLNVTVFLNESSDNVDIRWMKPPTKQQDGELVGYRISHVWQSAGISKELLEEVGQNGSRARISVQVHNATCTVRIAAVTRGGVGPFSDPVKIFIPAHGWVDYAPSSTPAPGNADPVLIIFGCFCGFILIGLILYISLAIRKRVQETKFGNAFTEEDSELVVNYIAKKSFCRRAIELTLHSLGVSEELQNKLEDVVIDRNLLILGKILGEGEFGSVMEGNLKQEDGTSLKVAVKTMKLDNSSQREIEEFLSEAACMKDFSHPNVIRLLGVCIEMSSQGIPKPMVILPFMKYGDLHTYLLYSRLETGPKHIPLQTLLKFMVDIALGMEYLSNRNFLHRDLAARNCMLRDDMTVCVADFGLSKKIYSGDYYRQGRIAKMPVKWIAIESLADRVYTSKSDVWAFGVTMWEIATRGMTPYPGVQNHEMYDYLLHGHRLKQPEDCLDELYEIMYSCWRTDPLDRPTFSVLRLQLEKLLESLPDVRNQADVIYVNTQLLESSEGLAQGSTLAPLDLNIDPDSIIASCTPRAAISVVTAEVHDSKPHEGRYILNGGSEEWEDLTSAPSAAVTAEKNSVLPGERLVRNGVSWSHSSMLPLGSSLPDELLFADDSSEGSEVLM
# Method: as §1
# DMPK = biological target: T26, DMPK (Homo sapiens, UniProt Q09013)
# T26 construct: purchased Eurofins/DiscoverX KINOMEscan scanMAX
# Method: as §1
# MAPKAPK5 = biological target: T27, MAPKAPK5 (Homo sapiens, UniProt Q8IW41)
# T27 construct: purchased Eurofins/DiscoverX KINOMEscan scanMAX
# Method: as §1
# [3] = biological target: T28, RSK1(Kin.Dom.2-C-terminal) (Homo sapiens, UniProt Q15418)
# T28 construct: RSK1(Kin.Dom.2-C-terminal); purchased Eurofins/DiscoverX KINOMEscan scanMAX
# Method: as §1
# MLCK = biological target: T29, MLCK (Homo sapiens, UniProt Q32MK0)
# T29 construct: purchased Eurofins/DiscoverX KINOMEscan scanMAX
# Method: as §1
# ERBB4 = biological target: T30, ERBB4 (Homo sapiens, UniProt Q15303)
# T30 construct: purchased Eurofins/DiscoverX KINOMEscan scanMAX
# Method: as §1
# CAMKK1 = biological target: T31, CAMKK1 (Homo sapiens, UniProt Q8N5S9)
# T31 construct: purchased Eurofins/DiscoverX KINOMEscan scanMAX
# Method: as §1
# CAMK2A = biological target: T32, CAMK2A (Homo sapiens, UniProt Q9UQM7)
# T32 construct: purchased Eurofins/DiscoverX KINOMEscan scanMAX
# T32 sequence (Q9UQM7 whole entry): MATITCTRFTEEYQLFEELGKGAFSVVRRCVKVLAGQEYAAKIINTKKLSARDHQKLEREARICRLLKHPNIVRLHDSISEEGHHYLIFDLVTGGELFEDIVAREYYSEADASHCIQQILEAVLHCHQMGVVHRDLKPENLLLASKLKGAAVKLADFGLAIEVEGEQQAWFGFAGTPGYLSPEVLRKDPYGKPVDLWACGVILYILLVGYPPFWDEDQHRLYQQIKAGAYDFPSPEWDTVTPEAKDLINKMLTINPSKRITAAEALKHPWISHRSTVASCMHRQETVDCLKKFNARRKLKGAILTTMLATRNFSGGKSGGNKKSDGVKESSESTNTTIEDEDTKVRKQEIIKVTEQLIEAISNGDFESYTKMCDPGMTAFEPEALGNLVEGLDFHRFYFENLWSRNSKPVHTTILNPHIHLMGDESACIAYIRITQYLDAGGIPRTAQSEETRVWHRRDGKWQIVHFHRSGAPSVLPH
# Method: as §1
# DCAMKL3 = biological target: T33, DCAMKL3 (Homo sapiens, UniProt Q9C098)
# T33 construct: purchased Eurofins/DiscoverX KINOMEscan scanMAX
# Method: as §1
# FGFR4 = biological target: T34, FGFR4 (Homo sapiens, UniProt P22455)
# T34 construct: purchased Eurofins/DiscoverX KINOMEscan scanMAX
# Method: as §1
# KIT(D816H) = biological target: T35, KIT(D816H) (Homo sapiens, UniProt P10721, D816H)
# T35 construct: purchased Eurofins/DiscoverX KINOMEscan scanMAX
# Method: as §1
# MST4 = biological target: T36, MST4 (Homo sapiens, UniProt Q9P289)
# T36 construct: purchased Eurofins/DiscoverX KINOMEscan scanMAX
# Method: as §1
# MYLK2 = biological target: T37, MYLK2 (Homo sapiens, UniProt Q9H1R3)
# T37 construct: purchased Eurofins/DiscoverX KINOMEscan scanMAX
# Method: as §1
# ACVR2B = biological target: T38, ACVR2B (Homo sapiens, UniProt Q13705)
# T38 construct: purchased Eurofins/DiscoverX KINOMEscan scanMAX
# Method: as §1
# FGFR1 = biological target: T39, FGFR1 (Homo sapiens, UniProt P11362)
# T39 construct: purchased Eurofins/DiscoverX KINOMEscan scanMAX
# Method: as §1
# [4] = biological target: T40, TYK2(JH1domain-catalytic) (Homo sapiens, UniProt P29597)
# T40 construct: TYK2(JH1domain-catalytic); DNA tag (qPCR barcode); purchased Eurofins/DiscoverX KINOMEscan scanMAX
# T40 sequence (P29597 897-1176 limits assumed): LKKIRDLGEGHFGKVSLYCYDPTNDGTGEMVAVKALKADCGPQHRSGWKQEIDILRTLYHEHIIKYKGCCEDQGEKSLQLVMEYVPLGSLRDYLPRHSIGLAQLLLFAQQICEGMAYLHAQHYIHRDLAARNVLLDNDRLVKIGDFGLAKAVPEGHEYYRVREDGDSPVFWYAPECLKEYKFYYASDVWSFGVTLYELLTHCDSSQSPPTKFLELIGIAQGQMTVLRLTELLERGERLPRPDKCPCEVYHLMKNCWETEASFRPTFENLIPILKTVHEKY
# Method: as §1
smiles,measurement,setting,value
CN1CCN(C2CCC(n3cc(-c4ccc(Oc5ccccc5)cc4)c4c(N)ncnc43)CC2)CC1 (stereo not shown) [A-419259],% Control,PIKFYVE,78%
same,% Control,CLK2,100%
same,% Control,[1],99%
same,% Control,PRKCI,26%
same,% Control,PIK3CA,100%
same,% Control,MARK4,97%
same,% Control,MYO3A,2.7%
same,% Control,EPHB6,6.8%
same,% Control,MET(M1250T),59%
same,% Control,CAMK4,100%
same,% Control,PLK2,77%
same,% Control,TLK2,100%
same,% Control,DLK,54%
same,% Control,KIT(A829P),5.9%
same,% Control,GAK,69%
same,% Control,MET(Y1235D),100%
same,% Control,PAK3,36%
same,% Control,[2],0.85%
same,% Control,"KIT(V559D,V654A)",18%
same,% Control,IRAK4,90%
same,% Control,PKN1,88%
same,% Control,YES,0%
same,% Control,FGR,0.85%
same,% Control,TGFBR2,100%
same,% Control,MERTK,12%
same,% Control,DMPK,100%
same,% Control,MAPKAPK5,100%
same,% Control,[3],84%
same,% Control,MLCK,66%
same,% Control,ERBB4,0%
same,% Control,CAMKK1,100%
same,% Control,CAMK2A,88%
same,% Control,DCAMKL3,100%
same,% Control,FGFR4,62%
same,% Control,KIT(D816H),40%
same,% Control,MST4,4.9%
same,% Control,MYLK2,95%
same,% Control,ACVR2B,100%
same,% Control,FGFR1,1.6%
same,% Control,[4],100%

# Reference: PMC6886798, “Expression of myeloid Src-family kinases is associated with poor prognosis in AML and influences Flt3-ITD kinase inhibitor acquired resistance” (PLoS ONE, 2019)
